# Experimental data taken from patent publication US9713648B2, “Weekly dosing regimens for anti-CD30 VC-PAB-MMAE antibody drug-conjugates” (Seattle Genetics, Inc., priority 2009, dated 2017).
# How the values were obtained:
# Format in all cases: in vivo, human
# [1] = Phase 1 weekly dosing study: tolerability, adverse events, MTD/DLT
# Protocol: (§1) A multicenter, phase 1, weekly dosing, dose escalation study was conducted in pts with refractory or relapsed HL or systemicALCL. The cAC10-MC-vc-PAB-MMAE antibody drug conjugate was administered weekly at doses of 0.4-1.4 mg/kg (2-hr IV infusions). Patients with […] or better after two 21-day cycles (6 doses) were eligible to continue treatment with the antibody drug conjugate.
# The grade 4 events were neutropenia (1 subject), and hyperglycemia (1). The grade 3 events were neutropenia (3), diarrhea (1), paresthesia (1), vomiting (1), and leucopenia (1). The grade 2 or lower adverse events were nausea (9), fatigue (8), peripheral neuropathy (6), neutropenia (2), dizziness (4), hyperglycemia (3), and paresthesia (3). The dose limiting toxicity was at 1.4 mg/kg.
# [2] = test system: refractory or relapsed HL or systemicALCL; assay: Phase 1 weekly dosing, dose escalation study: best clinical response, all evaluable patients; conditions: for Best Clinical Response: CR / Best Clinical Response: PD / Best Clinical Response: PR / Best Clinical Response: SD: number of patients
# Protocol: as §1
# (§2) Results: In 34 patients, median age was 34 yrs (range 13-82). Patients received a median of 5 prior therapies; 62% received an autologous SCT. MTD was exceeded at 1.4 mg/kg.
# [3] = Phase 1 weekly dosing study: exposure (AUC); conditions: weekly doses of 0.4-1.4 mg/kg
# Protocol: as §1, §2
# sALCL = assay: Phase 1 weekly dosing study: response rate in sALCL patients; conditions: sALCL patients (4/5), weekly 0.4-1.4 mg/kg
# Protocol: as §1, §2
# HL = assay: Phase 1 weekly dosing study: response rate in HL patients; conditions: weekly 0.4-1.4 mg/kg
# Protocol: as §1, §2
# [4] = number of subjects among 34 treated patients
# [5] = Total of all dose groups 0.4-1.4 mg/kg, N=27
# [6] = dose group 0.6 mg/kg weekly, N=3
# [7] = dose group 1.0 mg/kg weekly, N=6
# [8] = dose group 1.2 mg/kg weekly, N=5
# [9] = dose group 1.4 mg/kg weekly, N=3
substance,measurement,setting,value
cAC10-MC-vc-PAB-MMAE: chimeric AC10 antibody conjugated to the drug MMAE through a MC-vc-PAB linker; anti-CD30 antibody-drug conjugate,grade 5 events,[1]; 34 treated patients,no grade 5 events
same,tolerability,[1]; 34 treated patients,generally well tolerated
same,grade 2 or lower adverse events: dizziness,[1]; [4],4
same,grade 2 or lower adverse events: fatigue,[1]; [4],8
same,grade 2 or lower adverse events: hyperglycemia,[1]; [4],3
same,grade 2 or lower adverse events: nausea,[1]; [4],9
same,grade 2 or lower adverse events: neutropenia,[1]; [4],2
same,grade 2 or lower adverse events: paresthesia,[1]; [4],3
same,grade 2 or lower adverse events: peripheral neuropathy,[1]; [4],6
same,grade 3 events: diarrhea,[1]; [4],1
same,grade 3 events: leucopenia,[1]; [4],1
same,grade 3 events: neutropenia,[1]; [4],3
same,grade 3 events: paresthesia,[1]; [4],1
same,grade 3 events: vomiting,[1]; [4],1
same,grade 4 events: hyperglycemia,[1]; [4],1
same,grade 4 events: neutropenia,[1]; [4],1 subject
same,dose limiting toxicity (dose at which it occurred),[1]; weekly dosing,1.4 mg/kg
same,MTD (exceeded at),"[1]; weekly dosing, 2-hr IV infusions, 34 patients",< 1.4 mg/kg
same,observed time to response,"[2]; 1 mg/kg dose, weekly",approximately 8 wks
same,Complete Response,"[2]; All Patients (10/27), weekly 0.4-1.4 mg/kg",37% (10/27)
same,Overall Response Rate (CR + PR),"[2]; All Patients (13/27), weekly 0.4-1.4 mg/kg",48% (13/27)
same,Tumor Reductions,"[2]; All Patients (22/27), weekly 0.4-1.4 mg/kg",81% (22/27)
same,CRs observed,[2]; at higher doses,Multiple
same,Best Clinical Response: CR,[2]; [5],10 ^
same,Best Clinical Response: PD,[2]; [5],3
same,Best Clinical Response: PR,[2]; [5],3
same,Best Clinical Response: SD,[2]; [5],22
same,Best Clinical Response: SD,"[2]; dose group 0.4 mg/kg weekly, N=4, includes 1 patient with ALCL",4^+
same,Best Clinical Response: PD,[2]; [6],1
same,Best Clinical Response: PR,[2]; [6],1
same,Best Clinical Response: SD,[2]; [6],1
same,Best Clinical Response: PD,"[2]; dose group 0.8 mg/kg weekly, N=6",1
same,Best Clinical Response: SD,"[2]; dose group 0.8 mg/kg weekly, N=6, 1 pediatric patient",1^P
same,Best Clinical Response: CR,"[2]; dose group 0.8 mg/kg weekly, N=6, includes 2 patients with ALCL",4^++
same,Best Clinical Response: PR,[2]; [7],1
same,Best Clinical Response: SD,[2]; [7],1
same,Best Clinical Response: CR,"[2]; dose group 1.0 mg/kg weekly, N=6, includes 2 patients with ALCL",4^++
same,Best Clinical Response: PD,[2]; [8],1
same,Best Clinical Response: PR,[2]; [8],1
same,Best Clinical Response: SD,"[2]; dose group 1.2 mg/kg weekly, N=5, includes 1 pediatric patient",3^P
same,Best Clinical Response: CR,[2]; [9],2^
same,Best Clinical Response: SD,[2]; [9],1
same,time within which multiple complete responses were observed,"[2]; phase I study, weekly regimen",≤ 8 weeks
same,Exposure (AUC),[3],increased relative to dose level
same,Complete Response,sALCL,80% (4/5)
same,Overall Response Rate (CR + PR),sALCL,80% (4/5)
same,Complete Response,HL; HL Patients (6/22),27% (6/22)
same,Overall Response Rate (CR + PR),HL; HL Patients (9/22),41% (9/22)
